Tests used:
NCI/ADR-RES [1] = assay: Inhibition of the growth of breast cancer (MCF7/ADR-RES) cell line at 0.01 uM; format: functional; conditions: Homo sapiens
SNB-19 [2] = assay: Inhibition of the growth of CNS cancer(SNB-19) cell line at 0.01 uM; format: functional; conditions: Homo sapiens
IGROV-1 [3] = assay: Inhibition of the growth of ovarian cancer(IGROVI) cell line at 0.01 uM; format: functional; conditions: Homo sapiens
NCI-H322M [4] = assay: inhibition of the growth of non-small-cell lung cancer (NCI-H322M) cell line; format: functional; conditions: Homo sapiens
OVCAR-8 [5] = assay: inhibition of the growth of ovarian cancer(OVCAR-8) cell line; format: functional; conditions: Homo sapiens
SF-268 [6] = assay: Inhibition of the growth of CNS cancer(SF-268) cell line at 0.01 uM; format: functional; conditions: Homo sapiens
SF-539 [7] = assay: inhibition of the growth of CNS cancer(SF-539) cell line; format: functional; conditions: Homo sapiens
A549 [8] = assay: inhibition of the growth of non-small-cell lung cancer (A549/ATCC) cell line; format: functional; conditions: Homo sapiens
SF-268 [9] = assay: inhibition of the growth of CNS cancer(SF-268) cell line; format: functional; conditions: Homo sapiens
NCI-H23 [10] = assay: Inhibition of the growth of non-small-cell lung cancer (NCI-H23) cell line at 0.01 uM; format: functional; conditions: Homo sapiens
NCI/ADR-RES [11] = assay: inhibition of the growth of breast cancer (MCF7/ADR-RES) cell line; format: functional; conditions: Homo sapiens
SF-295 [12] = assay: Inhibition of the growth of CNS cancer(SF-295) cell line at 0.01 uM; format: functional; conditions: Homo sapiens
SF-539 [13] = assay: Inhibition of the growth of CNS cancer(SF-539) cell line at 0.01 uM; format: functional; conditions: Homo sapiens
SK-MEL-5 [14] = assay: inhibition of the growth of melanoma cancer (SK-MEL-5) cell line; format: functional; conditions: Homo sapiens
NCI-H460 [15] = assay: inhibition of the growth of non-small-cell lung cancer (NCI-H460) cell line; format: functional; conditions: Homo sapiens
[16] = biological target: T1, Bifunctional dihydrofolate reductase-thymidylate synthase (Toxoplasma gondii, UniProt Q07422)
T1 sequence (Q07422 whole entry): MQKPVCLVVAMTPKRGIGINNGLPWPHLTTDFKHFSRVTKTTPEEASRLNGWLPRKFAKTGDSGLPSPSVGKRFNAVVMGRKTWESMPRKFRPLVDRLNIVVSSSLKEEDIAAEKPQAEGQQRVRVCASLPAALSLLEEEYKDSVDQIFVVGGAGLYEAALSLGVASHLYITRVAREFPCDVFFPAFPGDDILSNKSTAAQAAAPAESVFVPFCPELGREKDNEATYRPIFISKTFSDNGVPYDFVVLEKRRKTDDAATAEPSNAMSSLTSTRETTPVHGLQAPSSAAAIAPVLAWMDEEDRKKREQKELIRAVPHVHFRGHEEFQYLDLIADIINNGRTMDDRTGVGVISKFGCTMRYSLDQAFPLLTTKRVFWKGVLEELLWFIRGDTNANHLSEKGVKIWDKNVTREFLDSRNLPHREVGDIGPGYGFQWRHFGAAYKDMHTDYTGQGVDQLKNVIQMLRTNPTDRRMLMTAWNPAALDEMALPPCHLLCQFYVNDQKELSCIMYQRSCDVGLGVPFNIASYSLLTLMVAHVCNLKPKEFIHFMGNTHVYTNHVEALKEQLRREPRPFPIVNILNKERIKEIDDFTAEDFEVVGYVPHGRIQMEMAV
Description: Inhibitory activity against dihydrofolate reductase (DHFR) from Toxoplasma gondii

MOLT-4 [17] = assay: Inhibition of the growth of leukemia (MOLT-4) cell line; format: functional; conditions: Homo sapiens
SF-295 [18] = assay: inhibition of the growth of CNS cancer(SF-295) cell line; format: functional; conditions: Homo sapiens
786-0 [19] = assay: Inhibition of the growth of renal cancer(786-0) cell line at 0.01 uM; format: functional; conditions: Homo sapiens
MDA-MB-435 [20] = assay: Inhibition of the growth of breast cancer (MDA-MB-435) cell line at 0.01 uM; format: functional; conditions: Homo sapiens
MCF7 [21] = assay: inhibition of the growth of breast cancer (MCF-7) cell line; format: functional; conditions: Homo sapiens
SK-MEL-5 [22] = assay: Inhibition of the growth of melanoma cancer (SK-MEL-5) cell line at 0.01 uM; format: functional; conditions: Homo sapiens
A549 [23] = assay: Inhibition of the growth of non-small-cell lung cancer (A549/ATCC) cell line at 0.01 uM; format: functional; conditions: Homo sapiens
DU-145 [24] = assay: inhibition of the growth of prostate cancer(DU-145) cell line; format: functional; conditions: Homo sapiens
HCT-116 [25] = assay: Inhibition of the growth of colon cancer(HCT116) cell line at 0.01 uM; format: functional; conditions: Homo sapiens
M14 [26] = assay: Inhibition of the growth of melanoma cancer (M14) cell line at 0.01 uM; format: functional; conditions: Homo sapiens
HCT-15 [27] = assay: inhibition of the growth of colon cancer(HCT-15) cell line; format: functional; conditions: Homo sapiens
RPMI-8226 [28] = assay: Inhibition of the growth of leukemia (RPMI-8226) cell line; format: functional; conditions: Homo sapiens
KM12 [29] = assay: inhibition of the growth of colon cancer(KM-12) cell line; format: functional; conditions: Homo sapiens
NCI-H23 [30] = assay: Inhibition of the growth of non-small-cell lung cancer (NCI-H23) cell line; format: functional; conditions: Homo sapiens
CAKI-1 [31] = assay: Inhibition of the growth of renal cancer(CAKI-1) cell line at 0.01 uM; format: functional; conditions: Homo sapiens
SR [32] = assay: Inhibition of the growth of leukemia(SR) cell line at 0.01 uM; format: functional; conditions: Homo sapiens
NCI-H322M [33] = assay: Inhibition of the growth of non-small-cell lung cancer (NCI-H322M) cell line at 0.01 uM; format: functional; conditions: Homo sapiens
CAKI-1 [34] = assay: inhibition of the growth of renal cancer(CAKI-1) cell line; format: functional; conditions: Homo sapiens
SR [35] = assay: Inhibition of the growth of leukemia(SR) cell line; format: functional; conditions: Homo sapiens
SNB-19 [36] = assay: inhibition of the growth of CNS cancer(SNB-19) cell line; format: functional; conditions: Homo sapiens
Dihydrofolate reductase [37] = biological target: T2, Dihydrofolate reductase (Pneumocystis carinii, UniProt P16184)
T2 sequence (P16184 whole entry): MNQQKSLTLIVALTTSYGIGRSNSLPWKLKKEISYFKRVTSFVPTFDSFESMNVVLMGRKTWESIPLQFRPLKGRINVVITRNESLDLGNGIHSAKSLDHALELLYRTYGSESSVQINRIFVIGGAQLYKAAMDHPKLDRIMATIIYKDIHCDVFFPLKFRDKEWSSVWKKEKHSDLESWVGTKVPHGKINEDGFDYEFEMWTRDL
Description: Inhibitory activity against dihydrofolate reductase (DHFR) from Pneumocystis carinii

OVCAR-8 [38] = assay: Inhibition of the growth of ovarian cancer(OVCAR-8) cell line at 0.01 uM; format: functional; conditions: Homo sapiens
UO-31 [39] = assay: Inhibition of the growth of renal cancer(UO-31) cell line at 0.01 uM; format: functional; conditions: Homo sapiens
HCT-15 [40] = assay: Inhibition of the growth of colon cancer(HCT-15) cell line at 0.01 uM; format: functional; conditions: Homo sapiens
UO-31 [41] = assay: inhibition of the growth of renal cancer(UO-31) cell line; format: functional; conditions: Homo sapiens
IGROV-1 [42] = assay: inhibition of the growth of ovarian cancer(IGROVI) cell line; format: functional; conditions: Homo sapiens
HCT-116 [43] = assay: inhibition of the growth of colon cancer(HCT116) cell line; format: functional; conditions: Homo sapiens
NCI-H522 [44] = assay: Inhibition of the growth of non-small-cell lung cancer (NCI-H522) cell line at 0.01 uM; format: functional; conditions: Homo sapiens
MCF7 [45] = assay: Inhibition of the growth of breast cancer (MCF-7) cell line at 0.01 uM; format: functional; conditions: Homo sapiens
NCI-H460 [46] = assay: Inhibition of the growth of non-small-cell lung cancer (NCI-H460) cell line at 0.01 uM; format: functional; conditions: Homo sapiens
Dihydrofolate reductase [47] = biological target: T3, Dihydrofolate reductase (Rattus norvegicus, UniProt Q920D2)
T3 sequence (Q920D2 whole entry): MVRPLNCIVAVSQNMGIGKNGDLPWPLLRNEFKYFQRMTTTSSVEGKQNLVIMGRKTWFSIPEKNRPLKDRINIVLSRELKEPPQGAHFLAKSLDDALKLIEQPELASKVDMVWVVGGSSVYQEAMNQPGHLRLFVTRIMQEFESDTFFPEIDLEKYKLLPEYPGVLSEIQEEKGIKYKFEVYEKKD
Description: Inhibitory activity against dihydrofolate reductase (DHFR) from rat liver

KM12 [48] = assay: Inhibition of the growth of colon cancer(KM-12) cell line at 0.01 uM; format: functional; conditions: Homo sapiens
786-0 [49] = assay: inhibition of the growth of renal cancer(786-0) cell line; format: functional; conditions: Homo sapiens
MDA-MB-435 [50] = assay: inhibition of the growth of breast cancer (MDA-MB-435) cell line; format: functional; conditions: Homo sapiens
M14 [51] = assay: inhibition of the growth of melanoma cancer (M14) cell line; format: functional; conditions: Homo sapiens
MOLT-4 [52] = assay: Inhibition of the growth of leukemia (MOLT-4) cell line at 0.01 uM; format: functional; conditions: Homo sapiens
MDA-N [53] = assay: Inhibition of the growth of breast cancer(MDA-N) cell line at 0.01 uM; format: functional; conditions: Homo sapiens
MDA-N [54] = assay: inhibition of the growth of breast cancer(MDA-N) cell line; format: functional; conditions: Homo sapiens
DU-145 [55] = assay: Inhibition of the growth of prostate cancer(DU-145) cell line at 0.01 uM; format: functional; conditions: Homo sapiens
RPMI-8226 [56] = assay: Inhibition of the growth of leukemia (RPMI-8226) cell line at 0.01 uM; format: functional; conditions: Homo sapiens
NCI-H522 [57] = assay: inhibition of the growth of non-small-cell lung cancer (NCI-H522) cell line; format: functional; conditions: Homo sapiens

COc1ccc(OC)c(N(C)c2ccc3nc(N)nc(N)c3n2)c1
inhibition at 0.01 µM (NCI/ADR-RES [1]): 82% | inhibition at 0.01 µM (SNB-19 [2]): 73% | inhibition at 0.01 µM (IGROV-1 [3]): 66% | GI50 (NCI-H322M [4]): < 10 nM | GI50 (OVCAR-8 [5]): < 10 nM | inhibition at 0.01 µM (SF-268 [6]): 57% | GI50 (SF-539 [7]): < 10 nM | GI50 (A549 [8]): < 10 nM | GI50 (SF-268 [9]): < 10 nM | inhibition at 0.01 µM (NCI-H23 [10]): 78% | GI50 (NCI/ADR-RES [11]): < 10 nM | inhibition at 0.01 µM (SF-295 [12]): 69% | inhibition at 0.01 µM (SF-539 [13]): 65% | GI50 (SK-MEL-5 [14]): < 10 nM | GI50 (NCI-H460 [15]): < 10 nM | IC50 [16]: 41 nM | GI50 (MOLT-4 [17]): < 10 nM | GI50 (SF-295 [18]): < 10 nM | inhibition at 0.01 µM (786-0 [19]): 55% | inhibition at 0.01 µM (MDA-MB-435 [20]): 70% | GI50 (MCF7 [21]): < 10 nM | inhibition at 0.01 µM (SK-MEL-5 [22]): 76% | inhibition at 0.01 µM (A549 [23]): 72% | GI50 (DU-145 [24]): < 10 nM | inhibition at 0.01 µM (HCT-116 [25]): 83% | inhibition at 0.01 µM (M14 [26]): 61% | GI50 (HCT-15 [27]): < 10 nM | GI50 (RPMI-8226 [28]): < 10 nM | GI50 (KM12 [29]): < 10 nM | GI50 (NCI-H23 [30]): < 10 nM | inhibition at 0.01 µM (CAKI-1 [31]): 70% | inhibition at 0.01 µM (SR [32]): 68% | inhibition at 0.01 µM (NCI-H322M [33]): 58% | GI50 (CAKI-1 [34]): < 10 nM | GI50 (SR [35]): < 10 nM | GI50 (SNB-19 [36]): < 10 nM | IC50 (Dihydrofolate reductase [37]): 34 nM | inhibition at 0.01 µM (OVCAR-8 [38]): 75% | inhibition at 0.01 µM (UO-31 [39]): 100% | inhibition at 0.01 µM (HCT-15 [40]): 70% | GI50 (UO-31 [41]): < 10 nM | GI50 (IGROV-1 [42]): < 10 nM | GI50 (HCT-116 [43]): < 10 nM | inhibition at 0.01 µM (NCI-H522 [44]): 67% | inhibition at 0.01 µM (MCF7 [45]): 58% | inhibition at 0.01 µM (NCI-H460 [46]): 82% | IC50 (Dihydrofolate reductase [47]): 4.2 nM | inhibition at 0.01 µM (KM12 [48]): 55% | GI50 (786-0 [49]): < 10 nM | GI50 (MDA-MB-435 [50]): < 10 nM | GI50 (M14 [51]): < 10 nM | inhibition at 0.01 µM (MOLT-4 [52]): 54% | inhibition at 0.01 µM (MDA-N [53]): 59% | GI50 (MDA-N [54]): < 10 nM | inhibition at 0.01 µM (DU-145 [55]): 57% | inhibition at 0.01 µM (RPMI-8226 [56]): 68% | GI50 (NCI-H522 [57]): < 10 nM

— ChEMBL document CHEMBL1131172 (J Med Chem, 1998)
